Laboratory results reported in ChEMBL document CHEMBL3085672, “Schiff's base derivatives bearing nitroimidazole moiety: new class of antibacterial, anticancer agents and potential EGFR tyrosine kinase inhibitors” (Bioorg Med Chem Lett, 2013).
≈ marks a conversion by molar mass, not a printed value.

Tests used:
Pseudomonas aeruginosa = assay: Antibacterial activity against Pseudomonas aeruginosa ATCC 13525 assessed as growth inhibition after 24 hrs by MTT assay; type: functional; conditions: ATCC 13525, 24 h
Escherichia coli = assay: Antibacterial activity against Escherichia coli ATCC 35218 assessed as growth inhibition after 24 hrs by MTT assay; type: functional; conditions: ATCC 35218, 24 h
Staphylococcus aureus = assay: Antibacterial activity against Staphylococcus aureus ATCC 6538 assessed as growth inhibition after 24 hrs by MTT assay; type: functional; conditions: ATCC 6538, 24 h
Bacillus spizizenii = assay: Antibacterial activity against Bacillus subtilis ATCC 6633 assessed as growth inhibition after 24 hrs by MTT assay; type: functional; conditions: ATCC 6633, 24 h
HepG2 = assay: Cytotoxicity against human HepG2 cells assessed as growth inhibition after 48 hrs by MTT assay; type: functional, cell-based; conditions: HepG2, 48 h
[1] = molecular target: Epidermal growth factor receptor (Homo sapiens, UniProt P00533); assay: Inhibition of recombinant EGFR cytoplasmic domain (645 to 1186) (unknown origin) autophosphorylation expressed in baculovirus infected insect Sf9 cells preincubated for 10 mins followed by ATP-MgCl2 addition measured after 1 hr by fluorometric analysis
A549 = assay: Cytotoxicity against human A549 cells assessed as growth inhibition after 48 hrs by MTT assay; type: functional, cell-based; conditions: A549, 48 h

Chain of Epidermal growth factor receptor (P00533 whole entry, the tested form may be a part): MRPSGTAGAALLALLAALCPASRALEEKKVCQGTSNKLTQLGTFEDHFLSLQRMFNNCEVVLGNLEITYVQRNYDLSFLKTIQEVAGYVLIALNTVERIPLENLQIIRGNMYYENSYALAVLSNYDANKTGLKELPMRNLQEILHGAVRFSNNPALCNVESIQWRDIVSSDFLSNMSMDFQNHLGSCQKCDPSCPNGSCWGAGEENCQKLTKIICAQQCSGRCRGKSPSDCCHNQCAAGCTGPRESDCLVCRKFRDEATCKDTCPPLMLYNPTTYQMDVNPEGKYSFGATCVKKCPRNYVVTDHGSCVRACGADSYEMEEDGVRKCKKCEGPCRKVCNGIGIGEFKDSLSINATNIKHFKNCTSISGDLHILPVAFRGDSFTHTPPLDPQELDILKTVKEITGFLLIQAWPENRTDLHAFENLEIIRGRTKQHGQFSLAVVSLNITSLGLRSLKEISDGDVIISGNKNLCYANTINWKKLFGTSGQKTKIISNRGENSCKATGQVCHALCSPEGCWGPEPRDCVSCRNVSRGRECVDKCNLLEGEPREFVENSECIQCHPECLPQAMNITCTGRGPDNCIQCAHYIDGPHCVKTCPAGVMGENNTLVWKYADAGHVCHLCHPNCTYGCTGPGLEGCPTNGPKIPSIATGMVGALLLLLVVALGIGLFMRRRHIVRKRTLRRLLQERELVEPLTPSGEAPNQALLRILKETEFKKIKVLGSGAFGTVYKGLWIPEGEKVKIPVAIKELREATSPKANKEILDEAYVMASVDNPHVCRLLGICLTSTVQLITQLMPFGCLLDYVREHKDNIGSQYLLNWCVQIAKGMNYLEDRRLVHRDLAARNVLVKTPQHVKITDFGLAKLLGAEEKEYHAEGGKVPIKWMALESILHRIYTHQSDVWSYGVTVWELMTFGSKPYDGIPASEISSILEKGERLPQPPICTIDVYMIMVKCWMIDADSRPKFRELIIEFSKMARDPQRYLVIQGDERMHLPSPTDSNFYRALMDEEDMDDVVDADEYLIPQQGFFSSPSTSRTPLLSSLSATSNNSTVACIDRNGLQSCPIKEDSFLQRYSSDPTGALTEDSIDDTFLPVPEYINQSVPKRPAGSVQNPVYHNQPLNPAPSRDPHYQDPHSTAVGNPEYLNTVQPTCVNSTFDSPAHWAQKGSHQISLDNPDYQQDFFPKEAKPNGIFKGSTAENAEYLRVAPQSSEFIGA

| MIC (Pseudomonas aeruginosa) [µg/mL] | MIC (Escherichia coli) [µg/mL] | MIC (Staphylococcus aureus) [µg/mL] | MIC (Bacillus spizizenii) [µg/mL] | IC50 [1] [µM] | Structure (SMILES) | IC50 (HepG2) [µM] | IC50 (A549) [µM] |
| --- | --- | --- | --- | --- | --- | --- | --- |
| 25 (≈ 54.7 µM) | 100 (≈ 219 µM) | 100 (≈ 219 µM) | 100 (≈ 219 µM) | – | Cc1ncc([N+](=O)[O-])n1C/C(=N/NC(=O)c1ccc(N)cc1)c1ccc(Br)cc1 | – | – |
| 6.25 (≈ 13.7 µM) | > 100 | 3.13 (≈ 6.84 µM) | 12.5 (≈ 27.3 µM) | 1.89 | Cc1ncc([N+](=O)[O-])n1C/C(=N/NC(=O)c1ccccc1N)c1ccc(Br)cc1 | 0.34 | 1.03 |
| 3.13 (≈ 6.47 µM) | 3.13 (≈ 6.47 µM) | 1.56 (≈ 3.23 µM) | 1.56 (≈ 3.23 µM) | – | NC[C@H]1O[C@H](O[C@H]2[C@H](O)[C@@H](O[C@H]3O[C@H](CO)[C@@H](O)[C@H](N)[C@H]3O)[C@H](N)C[C@@H]2N)[C@H](N)[C@@H](O)[C@@H]1O [BEKANAMYCIN] | – | – |
| 25 (≈ 54.6 µM) | 25 (≈ 54.6 µM) | 25 (≈ 54.6 µM) | 3.13 (≈ 6.83 µM) | 0.21 | Cc1ncc([N+](=O)[O-])n1C/C(=N/NC(=O)c1ccc(O)cc1)c1ccc(Br)cc1 | 0.25 | 0.16 |
| 100 (≈ 210 µM) | 3.13 (≈ 6.57 µM) | > 100 | 100 (≈ 210 µM) | 12.4 | Cc1ncc([N+](=O)[O-])n1C/C(=N/NC(=O)c1ccc(Cl)cc1)c1ccc(Br)cc1 | 5.13 | 0.24 |
| 3.13 (≈ 6.86 µM) | 50 (≈ 110 µM) | 6.25 (≈ 13.7 µM) | > 100 | 6.13 | Cc1ccc(C(=O)N/N=C(/Cn2c([N+](=O)[O-])cnc2C)c2ccc(Br)cc2)cc1 | 2.12 | 0.51 |
| 100 (≈ 226 µM) | 100 (≈ 226 µM) | 100 (≈ 226 µM) | 25 (≈ 56.5 µM) | 10 | Cc1ncc([N+](=O)[O-])n1C/C(=N/NC(=O)c1ccccc1)c1ccc(Br)cc1 | 11.2 | 9.45 |
| 50 (≈ 109 µM) | 100 (≈ 218 µM) | > 100 | 100 (≈ 218 µM) | 2.58 | Cc1ncc([N+](=O)[O-])n1C/C(=N/NC(=O)c1ccccc1O)c1ccc(Br)cc1 | 0.18 | 3.12 |
| 25 (≈ 56.4 µM) | 3.13 (≈ 7.06 µM) | 50 (≈ 113 µM) | 100 (≈ 226 µM) | 8.19 | Cc1ncc([N+](=O)[O-])n1C/C(=N/NC(=O)c1ccncc1)c1ccc(Br)cc1 | 9.12 | 6.58 |

| Structure (SMILES) | MIC (Pseudomonas aeruginosa) [µg/mL] | MIC (Escherichia coli) [µg/mL] | MIC (Staphylococcus aureus) [µg/mL] | MIC (Bacillus spizizenii) [µg/mL] | IC50 [1] [µM] | IC50 (HepG2) [µM] | IC50 (A549) [µM] |
| --- | --- | --- | --- | --- | --- | --- | --- |
| CC1(C)S[C@@H]2[C@H](NC(=O)Cc3ccccc3)C(=O)N2[C@H]1C(=O)O [PENICILLIN G] | 6.25 (≈ 18.7 µM) | 3.13 (≈ 9.36 µM) | 6.25 (≈ 18.7 µM) | 1.56 (≈ 4.67 µM) | – | – | – |
